Source: patent publication US20020137929A1, “1 - (3-heterocyclylphenyl) isothiourea, -isourea, -guanidine and -amidine herbicidal agents” (Intellectual Property Department, BASF Aktiengesellschaft, priority 1998, published 2002)

Legend:
[1] = test system: SAGPY (Arrowhead (Pygmaea)); experiment: Postemergence weed control under flooded paddy conditions; format: in vivo, Sagittaria pygmaea; details: postemergence weeds
How it was run: (§1)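 Herbicidal effect is judged by eye on a 0–9 scale versus control, 3–4 weeks after dosing. Dosing is into flood water kept 1.5–3 cm over the soil, at about 0.0313–0.500 kg/ha in aqueous/acetone 50/50 v/v, on 3–5 cm weeds and 1.5–2.5-leaf rice seedlings.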

ECHCG (Barnyardgrass) = experiment: Postemergence herbicidal evaluation; format: in vivo, Echinochloa crus-galli; details: postemergence
How it was run: (§2)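 Seedlings grown about two weeks were sprayed at 40 psi with compound dispersed in 50/50 acetone/water plus 0.5% TWEEN 20, at about 0.0156 to 0.500 kg/ha. Plants were kept in the greenhouse and scored 4–5 weeks later on a 0–9 visual scale against untreated controls.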

[2] = test system: IPOHE (Morningglory, Ivyleaf); experiment: Preemergence herbicidal evaluation; format: in vivo, Ipomoea hederacea; details: rated 4-5 weeks after treatment; for IPOHE rating: preemergence, 0-9 scale
How it was run: (§3)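 Each species is sown separately in potting soil over roughly an inch of soil before any emergence. The soil surface then receives an aqueous acetone spray delivering about 0.0156 to 0.500 kg/ha of compound. After four to five weeks, injury is scored from 0 to 9 relative to a control.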

[3] = test system: TRZAWR (Wheat, Winter, cv Riband); experiment: Preemergence herbicidal evaluation; format: in vivo, Triticum aestivum; details: rated 4-5 weeks after treatment; for TRZAWR rating: preemergence, 0-9 scale
How it was run: as §3

GALAP (Galium) = experiment: Postemergence herbicidal evaluation; format: in vivo, Galium aparine; details: postemergence
How it was run: as §2

CYPSE (Flatsedge) = experiment: Postemergence weed control under flooded paddy conditions; format: in vivo, Cyperus serotinus; details: postemergence weeds
How it was run: as §1

[4] = test system: ECHORC (Watergrass (Calif.)); experiment: Preemergence weed control under flooded paddy conditions; format: in vivo, Echinochloa oryzoides; details: rated 3-4 weeks after treatment
How it was run: (§4)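 Herbicidal effect is scored visually on a 0-9 scale against an untreated control, three to four weeks after compounds are pipetted into the flood water (1.5 to 3 cm deep) over seeds planted in silt loam at 0.5 cm depth. Rates: about 0.0313 to 0.500 kg/ha.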

ABUTH (Velvetleaf) = experiment: Postemergence herbicidal evaluation; format: in vivo, Abutilon theophrasti; details: postemergence
How it was run: as §2

SETVI (Foxtail, Green) = experiment: Postemergence herbicidal evaluation; format: in vivo, Setaria viridis; details: postemergence
How it was run: as §2

CYPIR (Rice Flatsedge) [5] = experiment: Preemergence weed control under flooded paddy conditions; format: in vivo, Cyperus iria; details: rated 3-4 weeks after treatment
How it was run: as §4

CYPIR (Rice Flatsedge) [6] = experiment: Postemergence weed control under flooded paddy conditions; format: in vivo, Cyperus iria; details: postemergence weeds
How it was run: as §1

ZEAMX (Corn, Field) = experiment: Preemergence herbicidal evaluation; format: in vivo, Zea mays; details: rated 4-5 weeks after treatment; for ZEAMX rating: preemergence, 0-9 scale
How it was run: as §3

ORYSAT (Rice, Tebonnet) = experiment: Postemergence herbicidal evaluation; format: in vivo, Oryza sativa, (L.) Tebonnet; details: postemergence
How it was run: as §2

MOOVA (Monochoria) = experiment: Preemergence weed control under flooded paddy conditions; format: in vivo, Monochoria vaginalis; details: rated 3-4 weeks after treatment
How it was run: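 Silt loam, seeds in top 0.5 cm; flood held 1.5-3 cm; test cpd as acetone/water 50/50 into flood water, ~0.0313-0.500 kg/ha a.i.; greenhouse 3-4 wk; visual 0-9 score vs control.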

[7] = Rate 0.0313 kg/ha, rated 3 to 4 weeks after treatment
[8] = Rate 0.0625 kg/ha, rated 3 to 4 weeks after treatment
[9] = Rate 0.1250 kg/ha, rated 3 to 4 weeks after treatment
[10] = Rate 0.2500 kg/ha, rated 3 to 4 weeks after treatment
[11] = rate 0.0313 kg/ha, 3-4 weeks after treatment
[12] = rate 0.0625 kg/ha, 3-4 weeks after treatment
[13] = rate 0.1250 kg/ha, 3-4 weeks after treatment
[14] = rate 0.2500 kg/ha, 3-4 weeks after treatment

## C=CCN1C(=O)C(CC(=O)NS(=O)(=O)CC)SC1=Nc1cc(-n2c(=O)cc(C(F)(F)F)n(C)c2=O)c(F)cc1Cl (stereo not drawn) [Compound 104, 3-Allyl-2-{{2-chloro-5-[3,6-dihydro-3-methyl-2,6-dioxo-4-(trifluoromethyl)-1(2H)-pyrimidinyl]-4-fluorophenyl}imino}-N-(ethylsulfonyl)-4-oxo-5-thiazolidineacetamide]
[1]; [7]
  Herbicidal rating SAGPY: 6.0
[1]; [8]
  Herbicidal rating SAGPY: 9.0
[1]; [9]
  Herbicidal rating SAGPY: 9.0
[1]; [10]
  Herbicidal rating SAGPY: 9.0
ECHCG (Barnyardgrass); rate 0.0156 kg/ha
  Herbicidal rating ECHCG: 0.0
ECHCG (Barnyardgrass); rate 0.0313 kg/ha
  Herbicidal rating ECHCG: 0.0
ECHCG (Barnyardgrass); rate 0.0625 kg/ha
  Herbicidal rating ECHCG: 0.0
ECHCG (Barnyardgrass); rate 0.1250 kg/ha
  Herbicidal rating ECHCG: 3.0
[2]; 0.0625 kg/ha
  IPOHE rating: 0.0
[2]; 0.1250 kg/ha
  IPOHE rating: 0.0
[2]; 0.2500 kg/ha
  IPOHE rating: 3.0
[2]; 0.5000 kg/ha
  IPOHE rating: 9.0
[3]; 0.0625 kg/ha
  TRZAWR rating: 0.0
[3]; 0.1250 kg/ha
  TRZAWR rating: 0.0
[3]; 0.2500 kg/ha
  TRZAWR rating: 0.0
[3]; 0.5000 kg/ha
  TRZAWR rating: 1.0
GALAP (Galium); rate 0.0156 kg/ha
  Herbicidal rating GALAP: 0.0
GALAP (Galium); rate 0.0313 kg/ha
  Herbicidal rating GALAP: 0.0
GALAP (Galium); rate 0.0625 kg/ha
  Herbicidal rating GALAP: 1.0
GALAP (Galium); rate 0.1250 kg/ha
  Herbicidal rating GALAP: 2.0
CYPSE (Flatsedge); [7]
  Herbicidal rating CYPSE: 0.0
CYPSE (Flatsedge); [9]
  Herbicidal rating CYPSE: 0.0
CYPSE (Flatsedge); [10]
  Herbicidal rating CYPSE: 0.0
[4]; 0.0313 kg/ha
  ECHORC herbicidal effect rating: 4.0
[4]; 0.0625 kg/ha
  ECHORC herbicidal effect rating: 5.0
[4]; 0.1250 kg/ha
  ECHORC herbicidal effect rating: 6.0
[4]; 0.2500 kg/ha
  ECHORC herbicidal effect rating: 6.0
ABUTH (Velvetleaf); rate 0.0156 kg/ha
  Herbicidal rating ABUTH: 7.0
ABUTH (Velvetleaf); rate 0.0313 kg/ha
  Herbicidal rating ABUTH: 7.0
ABUTH (Velvetleaf); rate 0.0625 kg/ha
  Herbicidal rating ABUTH: 9.0
ABUTH (Velvetleaf); rate 0.1250 kg/ha
  Herbicidal rating ABUTH: 9.0
SETVI (Foxtail, Green); rate 0.0156 kg/ha
  Herbicidal rating SETVI: 0.0
SETVI (Foxtail, Green); rate 0.0313 kg/ha
  Herbicidal rating SETVI: 0.0
SETVI (Foxtail, Green); rate 0.0625 kg/ha
  Herbicidal rating SETVI: 3.0
SETVI (Foxtail, Green); rate 0.1250 kg/ha
  Herbicidal rating SETVI: 4.0
CYPIR (Rice Flatsedge) [5]; 0.0313 kg/ha
  CYPIR herbicidal effect rating: 5.0
CYPIR (Rice Flatsedge) [5]; 0.0625 kg/ha
  CYPIR herbicidal effect rating: 9.0
CYPIR (Rice Flatsedge) [5]; 0.1250 kg/ha
  CYPIR herbicidal effect rating: 9.0
CYPIR (Rice Flatsedge) [5]; 0.2500 kg/ha
  CYPIR herbicidal effect rating: 9.0
CYPIR (Rice Flatsedge) [6]; [7]
  Herbicidal rating CYPIR: 5.0
CYPIR (Rice Flatsedge) [6]; [8]
  Herbicidal rating CYPIR: 9.0
CYPIR (Rice Flatsedge) [6]; [9]
  Herbicidal rating CYPIR: 9.0
CYPIR (Rice Flatsedge) [6]; [10]
  Herbicidal rating CYPIR: 9.0
ZEAMX (Corn, Field); 0.0625 kg/ha
  ZEAMX rating: 0.0
ZEAMX (Corn, Field); 0.1250 kg/ha
  ZEAMX rating: 0.0
ZEAMX (Corn, Field); 0.2500 kg/ha
  ZEAMX rating: 0.0
ZEAMX (Corn, Field); 0.5000 kg/ha
  ZEAMX rating: 2.0
ORYSAT (Rice, Tebonnet); rate 0.0156 kg/ha
  Herbicidal rating ORYSAT: 0.0
ORYSAT (Rice, Tebonnet); rate 0.0313 kg/ha
  Herbicidal rating ORYSAT: 0.5
ORYSAT (Rice, Tebonnet); rate 0.0625 kg/ha
  Herbicidal rating ORYSAT: 1.0
ORYSAT (Rice, Tebonnet); rate 0.1250 kg/ha
  Herbicidal rating ORYSAT: 2.0
MOOVA (Monochoria); 0.0313 kg/ha
  MOOVA herbicidal effect rating: 7.0
MOOVA (Monochoria); 0.0625 kg/ha
  MOOVA herbicidal effect rating: 9.0
MOOVA (Monochoria); 0.1250 kg/ha
  MOOVA herbicidal effect rating: 9.0
MOOVA (Monochoria); 0.2500 kg/ha
  MOOVA herbicidal effect rating: 9.0

## CCOC(=O)CN1C(=O)C2(CC2)SC1=Nc1cc(-n2c(=O)cc(C(F)(F)F)n(C)c2=O)c(F)cc1Cl [Compound 15, Ethyl 5-{{2-chloro-5-[3,6-dihydro-3-methyl-2,6-dioxo-4-(trifluoromethyl)-1(2H)-pyrimidinyl]-4-fluorophenyl}imino}-7-oxo-4-thia-6-azaspiro[2.4]-heptane-6-acetate]
[1]; [11]
  Herbicidal rating SAGPY: 0.0
[1]; [12]
  Herbicidal rating SAGPY: 0.0
[1]; [13]
  Herbicidal rating SAGPY: 0.0
[1]; [14]
  Herbicidal rating SAGPY: 0.0
ECHCG (Barnyardgrass); rate 0.0156 kg/ha
  ECHCG herbicidal rating: 0.0
ECHCG (Barnyardgrass); rate 0.0313 kg/ha
  ECHCG herbicidal rating: 0.0
ECHCG (Barnyardgrass); rate 0.0625 kg/ha
  ECHCG herbicidal rating: 3.0
ECHCG (Barnyardgrass); rate 0.1250 kg/ha
  ECHCG herbicidal rating: 9.0
[2]; rate 0.0156 kg/ha
  IPOHE preemergence herbicidal rating: 1.0
[2]; rate 0.0313 kg/ha
  IPOHE preemergence herbicidal rating: 1.5
[2]; rate 0.0625 kg/ha
  IPOHE preemergence herbicidal rating: 1.5
[2]; rate 0.1250 kg/ha
  IPOHE preemergence herbicidal rating: 7.0
[2]; rate 0.2500 kg/ha
  IPOHE preemergence herbicidal rating: 9.0
[3]; rate 0.0156 kg/ha
  TRZAWR preemergence herbicidal rating: 0.0
[3]; rate 0.0313 kg/ha
  TRZAWR preemergence herbicidal rating: 0.0
[3]; rate 0.0625 kg/ha
  TRZAWR preemergence herbicidal rating: 0.0
[3]; rate 0.1250 kg/ha
  TRZAWR preemergence herbicidal rating: 5.0
[3]; rate 0.2500 kg/ha
  TRZAWR preemergence herbicidal rating: 5.0
GALAP (Galium); rate 0.0156 kg/ha
  GALAP herbicidal rating: 0.0
GALAP (Galium); rate 0.0313 kg/ha
  GALAP herbicidal rating: 0.0
GALAP (Galium); rate 0.0625 kg/ha
  GALAP herbicidal rating: 3.0
GALAP (Galium); rate 0.1250 kg/ha
  GALAP herbicidal rating: 6.0
CYPSE (Flatsedge); [11]
  Herbicidal rating CYPSE: 0.0
CYPSE (Flatsedge); [12]
  Herbicidal rating CYPSE: 0.0
CYPSE (Flatsedge); [13]
  Herbicidal rating CYPSE: 0.0
CYPSE (Flatsedge); [14]
  Herbicidal rating CYPSE: 0.0
[4]; 0.0313 kg/ha
  Herbicidal rating ECHORC: 6.0
[4]; 0.0625 kg/ha
  Herbicidal rating ECHORC: 9.0
[4]; 0.1250 kg/ha
  Herbicidal rating ECHORC: 9.0
[4]; 0.2500 kg/ha
  Herbicidal rating ECHORC: 9.0
ABUTH (Velvetleaf); rate 0.0156 kg/ha
  ABUTH herbicidal rating: 9.0
ABUTH (Velvetleaf); rate 0.0313 kg/ha
  ABUTH herbicidal rating: 9.0
ABUTH (Velvetleaf); rate 0.0625 kg/ha
  ABUTH herbicidal rating: 9.0
ABUTH (Velvetleaf); rate 0.1250 kg/ha
  ABUTH herbicidal rating: 9.0
SETVI (Foxtail, Green); rate 0.0156 kg/ha
  SETVI herbicidal rating: 0.0
SETVI (Foxtail, Green); rate 0.0313 kg/ha
  SETVI herbicidal rating: 0.0
SETVI (Foxtail, Green); rate 0.0625 kg/ha
  SETVI herbicidal rating: 2.0
SETVI (Foxtail, Green); rate 0.1250 kg/ha
  SETVI herbicidal rating: 7.0
CYPIR (Rice Flatsedge) [5]; 0.0313 kg/ha
  Herbicidal rating CYPIR: 2.0
CYPIR (Rice Flatsedge) [5]; 0.0625 kg/ha
  Herbicidal rating CYPIR: 2.0
CYPIR (Rice Flatsedge) [5]; 0.1250 kg/ha
  Herbicidal rating CYPIR: 6.0
CYPIR (Rice Flatsedge) [5]; 0.2500 kg/ha
  Herbicidal rating CYPIR: 7.0
CYPIR (Rice Flatsedge) [6]; [11]
  Herbicidal rating CYPIR: 2.0
CYPIR (Rice Flatsedge) [6]; [12]
  Herbicidal rating CYPIR: 2.0
CYPIR (Rice Flatsedge) [6]; [13]
  Herbicidal rating CYPIR: 6.0
CYPIR (Rice Flatsedge) [6]; [14]
  Herbicidal rating CYPIR: 7.0
ZEAMX (Corn, Field); rate 0.0156 kg/ha
  ZEAMX preemergence herbicidal rating: 1.0
ZEAMX (Corn, Field); rate 0.0313 kg/ha
  ZEAMX preemergence herbicidal rating: 1.0
ZEAMX (Corn, Field); rate 0.0625 kg/ha
  ZEAMX preemergence herbicidal rating: 2.5
ZEAMX (Corn, Field); rate 0.1250 kg/ha
  ZEAMX preemergence herbicidal rating: 3.0
ZEAMX (Corn, Field); rate 0.2500 kg/ha
  ZEAMX preemergence herbicidal rating: 5.0
ORYSAT (Rice, Tebonnet); rate 0.0156 kg/ha
  ORYSAT herbicidal rating: 4.5
ORYSAT (Rice, Tebonnet); rate 0.0313 kg/ha
  ORYSAT herbicidal rating: 5.0
ORYSAT (Rice, Tebonnet); rate 0.0625 kg/ha
  ORYSAT herbicidal rating: 6.5
ORYSAT (Rice, Tebonnet); rate 0.1250 kg/ha
  ORYSAT herbicidal rating: 6.5
MOOVA (Monochoria); 0.0313 kg/ha
  Herbicidal rating MOOVA: 9.0
MOOVA (Monochoria); 0.0625 kg/ha
  Herbicidal rating MOOVA: 9.0
MOOVA (Monochoria); 0.1250 kg/ha
  Herbicidal rating MOOVA: 9.0
MOOVA (Monochoria); 0.2500 kg/ha
  Herbicidal rating MOOVA: 9.0
